According to US10759751B2, “Substituted spirocyclohexanes as muscarinic M1 receptor and/or M4 receptor agonists” (Heptares Therapeutics Limited, priority 2016, dated 2020):
Like-named read-outs stand apart in the source and are kept apart here.

Experiments:
Format in all cases: cell-based
[1] = biological target: T1, human muscarinic M1 receptor (Homo sapiens, UniProt P11229); experiment: Alphascreen Surefire phospho-ERK1/2 functional assay, M1; details: for EC50: phospho-ERK1/2, read-out: pEC50 M1 (converted); for Emax: CHO
T1 sequence (P11229 1-460): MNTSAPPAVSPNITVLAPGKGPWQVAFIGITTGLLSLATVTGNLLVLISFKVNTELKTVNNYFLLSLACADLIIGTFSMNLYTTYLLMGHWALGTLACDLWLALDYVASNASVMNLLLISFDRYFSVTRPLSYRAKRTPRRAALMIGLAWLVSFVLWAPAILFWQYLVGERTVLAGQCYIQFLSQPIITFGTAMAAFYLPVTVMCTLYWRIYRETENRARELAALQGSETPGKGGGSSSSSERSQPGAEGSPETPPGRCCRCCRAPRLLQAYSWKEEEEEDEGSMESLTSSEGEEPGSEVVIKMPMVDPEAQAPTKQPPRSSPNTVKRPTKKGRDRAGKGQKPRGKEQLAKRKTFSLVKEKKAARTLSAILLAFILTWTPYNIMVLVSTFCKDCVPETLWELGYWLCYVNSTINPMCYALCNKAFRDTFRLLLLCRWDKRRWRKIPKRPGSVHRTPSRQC
Summary of the method: (§1)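 CHO cells stably expressing human M1, M2, M3 or M4 receptor, serum-starved overnight, then stimulated with agonist for 5 min at 37 °C. Phospho-ERK1/2 quantified in lysates by AlphaScreen SureFire. pEC50 and Emax derived per subtype.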

[2] = biological target: T2, human muscarinic M3 receptor (Homo sapiens, UniProt P20309); experiment: Alphascreen Surefire phospho-ERK1/2 functional assay, M3; details: for EC50: CHO cells stably expressing human M3, phospho-ERK1/2, read-out: pEC50 M3 (converted); for Emax: CHO, read-out: M3 % Emax cf. ACh
T2 construct: expressed in transfected cells
Summary of the method: as §1

[3] = biological target: T3, human muscarinic M2 receptor (Homo sapiens, UniProt P08172); experiment: Alphascreen Surefire phospho-ERK1/2 functional assay, M2; details: for EC50: CHO cells stably expressing human M2, phospho-ERK1/2, read-out: pEC50 M2 (converted); for Emax: CHO, read-out: M2 % Emax cf. ACh
T3 sequence (P08172 1-466): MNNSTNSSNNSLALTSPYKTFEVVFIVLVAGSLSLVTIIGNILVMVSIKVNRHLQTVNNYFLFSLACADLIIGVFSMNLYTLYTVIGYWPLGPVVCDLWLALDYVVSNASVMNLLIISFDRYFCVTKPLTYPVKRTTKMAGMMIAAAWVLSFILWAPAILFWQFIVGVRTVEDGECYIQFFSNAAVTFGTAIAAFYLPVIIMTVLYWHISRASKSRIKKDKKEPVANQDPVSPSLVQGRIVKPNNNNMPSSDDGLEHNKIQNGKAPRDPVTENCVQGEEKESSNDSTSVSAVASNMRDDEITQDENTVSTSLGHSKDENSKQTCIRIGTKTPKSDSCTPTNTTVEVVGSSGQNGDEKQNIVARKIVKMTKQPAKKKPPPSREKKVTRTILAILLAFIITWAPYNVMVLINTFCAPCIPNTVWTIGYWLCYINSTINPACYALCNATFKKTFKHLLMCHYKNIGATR
Protocol: Functional assays were performed using the Alphascreen Surefire phospho-ERK1/2 assay (Crouch & Osmond, Comb. Chem. High Throughput Screen, 2008). ERK1/2 phosphorylation is a downstream consequence of both Gq/11 and Gi/o protein coupled receptor activation, making it highly suitable for the assessment of M1, M3 (Gq/11 coupled) and M2, M4 receptors (Gi/o coupled), rather than using different assay formats for different receptor subtypes. CHO cells stably expressing the human muscarinic M1, M2, M3 or M4 receptor were plated (25K/well) onto 96-well tissue culture plates in MEM-alpha+10% dialysed FBS. Once adhered, cells were serum-starved overnight. Agonist stimulation was performed by the addition of 5 μL agonist to the cells for 5 min (37° C.). Media was removed and 50 μL of lysis buffer added. After 15 min, a 4 μL sample was transferred to 384-well plate and 7 μL of detection mixture added. Plates were incubated for 2 h with gentle agitation in the dark and then read on a PHERAstar plate reader.
pEC50 and Emax figures were calculated from the resulting data for each receptor subtype.

[4] = biological target: T4, human muscarinic M4 receptor (Homo sapiens, UniProt P08173); experiment: Alphascreen Surefire phospho-ERK1/2 functional assay, M4; details: for EC50 / M4 % Emax cf. ACh: CHO cells stably expressing human M4; for EC50: phospho-ERK1/2, read-out: pEC50 M4 (converted); for Emax: CHO
T4 construct: expressed in transfected cells
T4 sequence (P08173 1-479): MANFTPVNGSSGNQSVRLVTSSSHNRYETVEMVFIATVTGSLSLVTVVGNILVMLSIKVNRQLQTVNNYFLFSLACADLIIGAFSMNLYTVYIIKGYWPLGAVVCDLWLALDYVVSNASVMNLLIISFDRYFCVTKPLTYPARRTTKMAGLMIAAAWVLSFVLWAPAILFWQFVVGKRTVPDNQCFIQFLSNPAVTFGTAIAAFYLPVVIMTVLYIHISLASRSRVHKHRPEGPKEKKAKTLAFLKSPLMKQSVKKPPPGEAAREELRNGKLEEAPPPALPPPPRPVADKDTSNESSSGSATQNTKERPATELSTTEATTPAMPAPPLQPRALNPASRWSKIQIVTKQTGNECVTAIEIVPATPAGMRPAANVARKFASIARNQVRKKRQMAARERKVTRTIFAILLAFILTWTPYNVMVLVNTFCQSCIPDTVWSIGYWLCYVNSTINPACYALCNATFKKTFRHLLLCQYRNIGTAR
Summary of the method: as §1

[5] = CHO cells stably expressing human M1
[6] = read-out: M1 % Emax cf. ACh, CHO cells stably expressing human M1, Emax relative to ACh
[7] = read-out: M4 % Emax cf. ACh, CHO cells stably expressing human M4, Emax relative to ACh

T2 sequence (P20309 whole entry): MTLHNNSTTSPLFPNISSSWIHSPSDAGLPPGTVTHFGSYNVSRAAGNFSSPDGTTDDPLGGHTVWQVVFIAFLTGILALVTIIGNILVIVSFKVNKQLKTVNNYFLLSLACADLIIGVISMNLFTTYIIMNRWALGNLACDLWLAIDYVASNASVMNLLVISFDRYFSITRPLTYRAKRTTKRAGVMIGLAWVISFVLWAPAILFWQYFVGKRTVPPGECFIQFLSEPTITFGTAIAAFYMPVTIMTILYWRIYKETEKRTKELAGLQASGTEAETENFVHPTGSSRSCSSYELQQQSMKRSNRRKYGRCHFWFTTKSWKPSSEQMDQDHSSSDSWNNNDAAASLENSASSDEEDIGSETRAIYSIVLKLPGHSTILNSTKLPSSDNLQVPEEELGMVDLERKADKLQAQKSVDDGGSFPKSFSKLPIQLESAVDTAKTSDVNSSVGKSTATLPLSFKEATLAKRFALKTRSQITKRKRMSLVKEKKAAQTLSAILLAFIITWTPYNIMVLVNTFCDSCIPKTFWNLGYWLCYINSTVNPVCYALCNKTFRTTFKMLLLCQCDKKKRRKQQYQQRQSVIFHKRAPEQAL

SMILES | EC50 [1, 5] | Emax [1, 6] | EC50 [2] | Emax [2] | EC50 [3] | Emax [3] | EC50 [4] | Emax [4, 7] | M1 % Emax cf. ACh ([1]; CHO cells stably expressing human M1, Emax relative to ACh) | M4 % Emax cf. ACh ([4]; Emax relative to ACh) | Emax ([1]; read-out: M1 % Emax cf. ACh) | Emax ([4]; read-out: M4 % Emax cf. ACh)
CCOC(=O)N1CCCN(C2CCC(C#N)(c3cccc(Cl)c3)CC2)CC1 (mixture of isomers) [3-5 mixture of isomers] | 83.2 nM | 101% | > 20000 nM | 36% | > 20000 nM | 5% | 309 nM | 47% | – | – | – | –
CCc1noc([C@H]2CC[C@@H](NC3CCC(C#N)(c4ccccc4)CC3)C2)n1 (single isomer, unassigned) [19-2 Isomer 2] | 191 nM | 118% | > 20000 nM | 5% | 2400 nM | 35% | 138 nM | 96% | – | – | – | –
CCOC(=O)N1CCCN(C2CCC(C#N)(c3ccc(F)cc3)CC2)CC1 (mixture of isomers) [3-3 mixture of isomers] | 9.77 nM | 101% | > 20000 nM | 35% | > 20000 nM | 38% | 63.1 nM | 85% | – | – | – | –
CCOC(=O)N1CCCN(C2CCC(c3nc(CC)c(C)[nH]3)CC2)CC1 (single isomer, unassigned) [5-1 Isomer 2] | 66.1 nM | 115% | > 20000 nM | 7% | > 20000 nM | 8% | 513 nM | 26% | – | – | – | –
CCc1noc(C2CC3(C2)CN(C2CCC4(CC2)C(=O)Nc2ccccc24)C3)n1 (single isomer, unassigned) [25-1 Isomer 1] | 617 nM | 43% | > 20000 nM | 6% | > 20000 nM | 13% | 155 nM | 70% | – | – | – | –
CCOC(=O)N[C@H]1CCN(C2CCC(C#N)(c3cccc(OC)c3)CC2)C1 (single isomer, unassigned) [1-11 Isomer 2] | 148 nM | 99% | > 20000 nM | 1% | > 20000 nM | 0% | > 20000 nM | 9% | – | – | – | –
CCOC(=O)N1CCC2CN(C3CCC(C#N)(c4ccccc4)CC3)CC21 (single isomer, unassigned) [15-1 Isomer 2] | 155 nM | 117% | > 20000 nM | 6% | > 20000 nM | 14% | 145 nM | 21% | – | – | – | –
CCOC(=O)N[C@H]1CCN(C2CCC(C#N)(c3cccc(C)c3)CC2)C1 (single isomer, unassigned) [1-9 Isomer 2] | 27.5 nM | 99% | > 20000 nM | 2% | > 20000 nM | 6% | > 20000 nM | 12% | – | – | – | –
CCOC(=O)N1CCCN(C2CCC(C#N)(c3ccc(OC)cc3)CC2)CC1 (mixture of isomers) [3-9 mixture of isomers] | 115 nM | 98% | > 20000 nM | 0% | > 20000 nM | 33% | > 20000 nM | 2% | – | – | – | –
CCOC(=O)N(C)[C@H]1CCN(C2CCC(C#N)(c3ccccc3)CC2)C1 (single isomer, unassigned) [1-20 Isomer 2] | 148 nM | – | > 20000 nM | 0% | > 20000 nM | 0% | > 20000 nM | – | – | – | 78% | 19%

More lines, main results first:

EC50 [1, 5] | Emax [1, 6] | EC50 [2] | Emax [2] | EC50 [3] | Emax [3] | EC50 [4] | Emax [4, 7] | M1 % Emax cf. ACh ([1]; CHO cells stably expressing human M1, Emax relative to ACh) | M4 % Emax cf. ACh ([4]; Emax relative to ACh) | SMILES | Emax ([1]; read-out: M1 % Emax cf. ACh) | Emax ([4]; read-out: M4 % Emax cf. ACh)
22.4 nM | 106% | > 20000 nM | 0% | > 20000 nM | 2% | 759 nM | 30% | – | – | CC#CCOC(=O)N1CCCN(C2CCC(C#N)(c3ccc(OC)cn3)CC2)CC1 (single isomer, unassigned) [3-32 Isomer 1] | – | –
776 nM | 116% | > 20000 nM | 7% | > 20000 nM | 15% | 245 nM | 91% | – | – | COC(=O)N1CCCN(C2CCC(C#N)(c3ccccc3)CC2)CC1 (mixture of isomers) [3-28 mixture of isomers] | – | –
115 nM | 125% | > 20000 nM | 33% | > 20000 nM | 5% | > 20000 nM | 46% | – | – | CCOC(=O)N[C@@H]1CCN(C2CCC(C#N)(c3ccccc3F)CC2)C1 (single isomer, unassigned) [1-5 Isomer 2] | – | –
25.7 nM | 65% | > 20000 nM | 0% | > 20000 nM | 27% | 10.7 nM | 48% | – | – | CCOC(=O)N1CCC2(CCN(C3CCC4(CC3)C(=O)N(C(=O)OCC)c3ccccc34)CC2)C1 (single isomer, unassigned) [12-2 isomer 1] | – | –
36.3 nM | – | > 15800 nM | 17% | > 15800 nM | 39% | 75.9 nM | – | 130% | 116% | CCOC(=O)N1CCCN(C2CCC3(CC2)C(=O)Nc2cc(C)ccc23)CC1 (single isomer, unassigned) [4-6 isomer 2] | – | –
66.1 nM | 65% | > 15800 nM | 11% | > 15800 nM | 3% | > 15800 nM | 11% | – | – | CCOC(=O)N[C@H]1CCN(C2CCC3(CC2)C(=O)Nc2cc(C)ccc23)C1 (single isomer, unassigned) [2-4 isomer 1] | – | –
16.2 nM | 38% | > 20000 nM | 4% | > 20000 nM | 6% | 81.3 nM | – | – | 35% | COc1ccc2c(c1)C1(CCC(N3CCC4(CC(c5nc(C)no5)C4)C3)CC1)C(=O)N2 (single isomer, unassigned) [26-2 Isomer 1] | – | –
72.4 nM | 97% | > 20000 nM | 15% | > 20000 nM | 43% | 389 nM | 99% | – | – | CCOC(=O)N1CCCN(C2CCC(C#N)(c3ccccn3)CC2)CC1 (mixture of isomers) [3-11 mixture of isomers] | – | –
